Experimental data taken from patent publication US8404643B2, “Metastin derivatives and use thereof” (priority 2005, dated 2013).
Numbered stars: 1 amine (or outer) side, 2 acyl side, 3 side chain; on linkers, the order of the positions; unused ones are H or OH. Square brackets hold non-standard residues; d marks the D form. Peptide text beside a SMILES is read from it. * marks the point of attachment. Phe(3R-OH) = O=C([C@@H](N[*:1])[C@H](O[*:3])c1ccccc1)[*:2]; Phe(βS-OH) = N[C@H](C(=O)O)[C@@H](O)c1ccccc1; Pro(trans-4-F) = O=C(O)[C@@H]1C[C@@H](F)CN1; pY = N[C@@H](Cc1ccc(OP(=O)(O)O)cc1)C(=O)O; Phe(3-Me) = Cc1cccc(C[C@H](N)C(=O)O)c1; Phe(4-Me) = Cc1ccc(C[C@H](N)C(=O)O)cc1; Desaminotyrosyl = O=C(CCc1ccc(O)cc1)*; Phe(2-Me) = Cc1ccccc1C[C@H](N)C(=O)O; Arg(Me) = CNC(=N)NCCC[C@H](N)C(=O)O; cisHyp = O=C(O)[C@@H]1C[C@H](O)CN1; Hyp = O=C(O)[C@@H]1C[C@@H](O)CN1; αMeF = C[C@](N)(Cc1ccccc1)C(=O)O; Dab = NCC[C@H](N)C(=O)O; Nva = CCC[C@H](N)C(=O)O; Dap = NC[C@H](N)C(=O)O; azaGly = NNC(=O)O

target: T1, hOT7T175 (Homo sapiens, UniProt Q969F8); test: Assay for intracellular Ca ion level-increasing activity using FLIPR; format: cell-based; settings: hOT7T175/CHO cells, relative to Metastin (1-54)
T1 construct: expressed in transfected cells
T1 sequence (Q969F8 whole entry L364H): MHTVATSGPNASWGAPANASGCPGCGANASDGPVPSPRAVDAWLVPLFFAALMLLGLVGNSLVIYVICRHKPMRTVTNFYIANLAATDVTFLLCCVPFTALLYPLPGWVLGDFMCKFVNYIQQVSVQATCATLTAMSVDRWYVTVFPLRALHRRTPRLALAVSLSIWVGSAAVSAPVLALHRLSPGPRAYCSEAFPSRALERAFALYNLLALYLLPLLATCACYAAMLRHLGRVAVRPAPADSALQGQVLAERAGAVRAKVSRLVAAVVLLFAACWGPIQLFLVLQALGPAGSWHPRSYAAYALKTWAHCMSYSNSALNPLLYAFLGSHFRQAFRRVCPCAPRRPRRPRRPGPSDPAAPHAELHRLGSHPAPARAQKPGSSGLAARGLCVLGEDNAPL
In short: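 CHO/dhfr− cells stably transfected with hOT7T175, selected for high metastin response, loaded with Fluo3-AM for 1 h at 37 °C in HANKS/HBSS (pH 7.4) with probenecid. Peptides were diluted from 1×10^−3 M DMSO stock into HANKS/HBSS with 2.5 mM probenecid, 0.2% BSA, 0.1% CHAPS; intracellular Ca rise read by FLIPR.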

| Molecule | Specific Activity: intracellular Ca ion level-increasing activity [specific activity to Metastin (1-54)] |
| --- | --- |
| CNC(=N)NCCC[C@H](NC(=O)[C@H](CC(C)C)NC(=O)NNC(=O)[C@H](Cc1ccccc1)NC(=O)[C@@H](NC(=O)CNC(=O)[C@@H]1C[C@@H](O)CN1C(=O)[C@@H](Cc1ccc(O)cc1)NC(C)=O)[C@@H](C)O)C(=O)N[C@@H](Cc1c[nH]c2ccccc12)C(N)=O [Compound No. 862, Ac-D-Tyr-Hyp-Gly-Thr-Phe-AzaGly-Leu-Arg(Me)-Trp-NH2] (Ac-[dY][Hyp]GTF[azaGly]L[Arg(Me)]W-NH2) | 0.7 |
| CNC(=N)NCCC[C@H](NC(=O)[C@H](CC(C)C)NC(=O)NNC(=O)[C@H](Cc1ccccc1)NC(=O)[C@@H](NC(=O)[C@H](CN)NC(=O)[C@@H]1C[C@@H](O)CN1C(=O)[C@@H](Cc1ccc(O)cc1)NC(C)=O)[C@@H](C)O)C(=O)N[C@@H](Cc1c[nH]c2ccccc12)C(N)=O [Compound No. 863, Ac-D-Tyr-Hyp-Dap-Thr-Phe-AzaGly-Leu-Arg(Me)-Trp-NH2] (Ac-[dY][Hyp][Dap]TF[azaGly]L[Arg(Me)]W-NH2) | 0.9 |
| CNC(=N)NCCC[C@H](NC(=O)[C@H](CC(C)C)NC(=O)NNC(=O)[C@H](Cc1ccccc1)NC(=O)[C@@H](NC(=O)[C@H](CCN)NC(=O)[C@@H]1C[C@@H](O)CN1C(=O)[C@@H](Cc1ccc(O)cc1)NC(C)=O)[C@@H](C)O)C(=O)N[C@@H](Cc1c[nH]c2ccccc12)C(N)=O [Compound No. 864, Ac-D-Tyr-Hyp-Dab-Thr-Phe-AzaGly-Leu-Arg(Me)-Trp-NH2] (Ac-[dY][Hyp][Dab]TF[azaGly]L[Arg(Me)]W-NH2) | 1.0 |
| CNC(=N)NCCC[C@H](NC(=O)[C@H](CC(C)C)NC(=O)NNC(=O)[C@](C)(Cc1ccccc1)NC(=O)[C@@H](NC(=O)[C@H](CC(N)=O)NC(=O)[C@@H]1C[C@@H](O)CN1C(=O)[C@@H](Cc1ccc(O)cc1)NC(C)=O)[C@@H](C)O)C(=O)N[C@@H](Cc1c[nH]c2ccccc12)C(N)=O [Compound No. 868, Ac-D-Tyr-Hyp-Asn-Thr-αMePhe-AzaGly-Leu-Arg(Me)-Trp-NH2] (Ac-[dY][Hyp]NT[αMeF][azaGly]L[Arg(Me)]W-NH2) | 1.4 |
| CNC(=N)NCCC[C@H](NC(=O)[C@H](CC(C)C)NC(=O)NNC(=O)[C@H](Cc1ccccc1C)NC(=O)[C@@H](NC(=O)[C@H](CC(N)=O)NC(=O)[C@@H]1C[C@@H](O)CN1C(=O)[C@@H](Cc1ccc(O)cc1)NC(C)=O)[C@@H](C)O)C(=O)N[C@@H](Cc1c[nH]c2ccccc12)C(N)=O [Compound No. 870, Ac-D-Tyr-Hyp-Asn-Thr-Phe(2Me)-AzaGly-Leu-Arg(Me)-Trp-NH2] (Ac-[dY][Hyp]NT[Phe(2-Me)][azaGly]L[Arg(Me)]W-NH2) | 0.6 |
| CNC(=N)NCCC[C@H](NC(=O)[C@H](CC(C)C)NC(=O)NNC(=O)[C@H](Cc1cccc(C)c1)NC(=O)[C@@H](NC(=O)[C@H](CC(N)=O)NC(=O)[C@@H]1C[C@@H](O)CN1C(=O)[C@@H](Cc1ccc(O)cc1)NC(C)=O)[C@@H](C)O)C(=O)N[C@@H](Cc1c[nH]c2ccccc12)C(N)=O [Compound No. 872, Ac-D-Tyr-Hyp-Asn-Thr-Phe(3Me)-AzaGly-Leu-Arg(Me)-Trp-NH2] (Ac-[dY][Hyp]NT[Phe(3-Me)][azaGly]L[Arg(Me)]W-NH2) | 0.7 |
| CNC(=N)NCCC[C@H](NC(=O)[C@H](CC(C)C)NC(=O)NNC(=O)[C@H](Cc1ccc(C)cc1)NC(=O)[C@@H](NC(=O)[C@H](CC(N)=O)NC(=O)[C@@H]1C[C@@H](O)CN1C(=O)[C@@H](Cc1ccc(O)cc1)NC(C)=O)[C@@H](C)O)C(=O)N[C@@H](Cc1c[nH]c2ccccc12)C(N)=O [Compound No. 874, Ac-D-Tyr-Hyp-Asn-Thr-Phe(4Me)-AzaGly-Leu-Arg(Me)-Trp-NH2] (Ac-[dY][Hyp]NT[Phe(4-Me)][azaGly]L[Arg(Me)]W-NH2) | 0.8 |
| CNC(=N)NCCC[C@H](NC(=O)[C@H](CC(C)C)NC(=O)NNC(=O)[C@@H](NC(=O)[C@@H](NC(=O)[C@H](CC(N)=O)NC(=O)[C@@H]1C[C@@H](O)CN1C(=O)[C@@H](Cc1ccc(O)cc1)NC(C)=O)[C@@H](C)O)[C@H](O)c1ccccc1)C(=O)N[C@@H](Cc1c[nH]c2ccccc12)C(N)=O [Compound No. 877, Ac-D-Tyr-Hyp-Asn-Thr-threo-Ser(3Phenyl)-AzaGly-Leu-Arg(Me)-Trp-NH2] (Ac-[dY][Hyp]NT[Phe(3R-OH)][azaGly]L[Arg(Me)]W-NH2) | 1.0 |
| CNC(=N)NCCC[C@H](NC(=O)[C@H](CC(C)C)NC(=O)NNC(=O)[C@@H](NC(=O)[C@@H](NC(=O)[C@H](CC(N)=O)NC(=O)[C@@H]1C[C@@H](O)CN1C(=O)[C@@H](Cc1ccc(O)cc1)NC(C)=O)[C@@H](C)O)[C@@H](O)c1ccccc1)C(=O)N[C@@H](Cc1c[nH]c2ccccc12)C(N)=O [Compound No. 882, Ac-D-Tyr-Hyp-Asn-Thr-erythro-Ser(3Phenyl)-AzaGly-Leu-Arg(Me)-Trp-NH2] (Ac-[dY][Hyp]NT[Phe(βS-OH)][azaGly]L[Arg(Me)]W-NH2) | 0.8 |
| CCC[C@H](NC(=O)[C@@H]1C[C@@H](O)CN1C(=O)[C@@H](Cc1ccc(O)cc1)NC(C)=O)C(=O)N[C@H](C(=O)N[C@@H](Cc1ccccc1)C(=O)NNC(=O)N[C@@H](CC(C)C)C(=O)N[C@@H](CCCNC(=N)NC)C(=O)N[C@@H](Cc1c[nH]c2ccccc12)C(N)=O)[C@@H](C)O [Compound No. 886, Ac-D-Tyr-Hyp-Nva-Thr-Phe-AzaGly-Leu-Arg(Me)-Trp-NH2] (Ac-[dY][Hyp][Nva]TF[azaGly]L[Arg(Me)]W-NH2) | 1.2 |
| CNC(=N)NCCC[C@H](NC(=O)[C@H](CC(C)C)NC(=O)NNC(=O)[C@H](Cc1ccccc1)NC(=O)[C@@H](NC(=O)[C@H](CC(N)=O)NC(=O)[C@@H]1C[C@@H](O)CN1C(=O)CCc1ccc(O)cc1)[C@@H](C)O)C(=O)N[C@@H](Cc1c[nH]c2ccccc12)C(N)=O [Compound No. 888, 3-(p-Hydroxyphenyl)propionyl-Hyp-Asn-Thr-Phe-AzaGly-Leu-Arg(Me)-Trp-NH2] (Desaminotyrosyl-[Hyp]NTF[azaGly]L[Arg(Me)]W-NH2) | 1.1 |
| CNC(=N)NCCC[C@H](NC(=O)[C@H](CC(C)C)NC(=O)NNC(=O)[C@H](Cc1ccccc1)NC(=O)[C@@H](NC(=O)[C@H](CC(N)=O)NC(=O)[C@@H]1C[C@H](O)CN1C(=O)[C@@H](Cc1ccc(O)cc1)NC(C)=O)[C@@H](C)O)C(=O)N[C@@H](Cc1c[nH]c2ccccc12)C(N)=O [Compound No. 896, Ac-D-Tyr-cisHyp-Asn-Thr-Phe-AzaGly-Leu-Arg(Me)-Trp-NH2] (Ac-[dY][cisHyp]NTF[azaGly]L[Arg(Me)]W-NH2) | 0.6 |
| CNC(=N)NCCC[C@H](NC(=O)[C@H](CC(C)C)NC(=O)NNC(=O)[C@H](Cc1ccccc1)NC(=O)[C@@H](NC(=O)[C@H](CC(N)=O)NC(=O)[C@@H]1C[C@@H](F)CN1C(=O)[C@@H](Cc1ccc(O)cc1)NC(C)=O)[C@@H](C)O)C(=O)N[C@@H](Cc1c[nH]c2ccccc12)C(N)=O [Compound No. 897, Ac-D-Tyr-Pro(4F)-Asn-Thr-Phe-AzaGly-Leu-Arg(Me)-Trp-NH2] (Ac-[dY][Pro(trans-4-F)]NTF[azaGly]L[Arg(Me)]W-NH2) | 0.7 |
| CNC(=N)NCCC[C@H](NC(=O)[C@H](CC(C)C)NC(=O)NNC(=O)[C@H](Cc1ccccc1)NC(=O)[C@@H](NC(=O)[C@H](CC(N)=O)NC(=O)[C@@H]1C[C@@H](O)CN1C(=O)[C@H](Cc1ccc(O)cc1)NC(C)=O)[C@@H](C)O)C(=O)N[C@@H](Cc1c[nH]c2ccccc12)C(N)=O [Compound No. 899, Ac-Tyr-Hyp-Asn-Thr-Phe-AzaGly-Leu-Arg(Me)-Trp-NH2] (Ac-Y[Hyp]NTF[azaGly]L[Arg(Me)]W-NH2) | 1.1 |
| Ac-D-Tyr-Aze(3)-Asn-Thr-Phe-AzaGly-Leu-Arg(Me)-Trp-NH2 [Compound No. 730] | 4.1 |
| Ac-D-Tyr-D-Trp-Asn-D-Pro-Phe-AzaGly-Leu-Arg(Me)-Trp-NH2 (Ac-[dY][dW]N[dP]F[azaGly]L[Arg(Me)]W-NH2; SMILES CNC(=N)NCCC[C@H](NC(=O)[C@H](CC(C)C)NC(=O)NNC(=O)[C@H](Cc1ccccc1)NC(=O)[C@H]1CCCN1C(=O)[C@H](CC(N)=O)NC(=O)[C@@H](Cc1c[nH]c2ccccc12)NC(=O)[C@@H](Cc1ccc(O)cc1)NC(C)=O)C(=O)N[C@@H](Cc1c[nH]c2ccccc12)C(N)=O) [Compound No. 719] | 3.8 |
| Ac-D-Tyr-Tyr(PO3H2)-Asn-Thr-Phe-AzaGly-Leu-Arg(Me)-Trp-NH2 (Ac-[dY][pY]NTF[azaGly]L[Arg(Me)]W-NH2; SMILES CNC(=N)NCCC[C@H](NC(=O)[C@H](CC(C)C)NC(=O)NNC(=O)[C@H](Cc1ccccc1)NC(=O)[C@@H](NC(=O)[C@H](CC(N)=O)NC(=O)[C@H](Cc1ccc(OP(=O)(O)O)cc1)NC(=O)[C@@H](Cc1ccc(O)cc1)NC(C)=O)[C@@H](C)O)C(=O)N[C@@H](Cc1c[nH]c2ccccc12)C(N)=O) [Compound No. 775] | 1.3 |
